Measured values reported in patent US9902964B2, “Growth arrested cells useful for producing compounds” (priority 2014, dated 2018).

What was measured:
Type in all cases: cell-based, Escherichia coli
[1] = tested on: HipA-arrested cells (MG1655/pHipA); assay: β-Lactam susceptibility of HipA-arrested cells (optical density, lysis)
Description: Biological triplicates of MG1655/pHipA cells were inoculated into 30 ml of MOPS-M9 medium and grown at 37° C. until an OD600 of 0.5 was reached. aTc was added to reach 50 ng/ml, and the cultures were split into two 12-ml subcultures. At 2.5 h later, carbenicillin (100 μg/ml) was added to one subculture and optical densities were measured. For comparison of the levels of β-lactam tolerance of WT and ΔrelA cultures expressing HipA, biological triplicates of the WT/pHipA and ΔrelA/pHipA strains were inoculated into 5 ml of MOPS-M9 medium and grown at 37° C. HipA expression was induced with 50 ng/ml aTc when the OD600 reached ˜0.3. Ampicillin was added to reach a final concentration of 100 μg/ml 1.5 h later, and optical densities were monitored.

[2] = tested on: persister cells of MG1655; assay: Antibiotic resistance of naturally occurring persister cells isolated by ofloxacin treatment (CFU count); details: chloramphenicol 30 μg/ml, ampicillin 100 μg/ml, 4 h at 37° C.; P=0.3, unpaired t test
Description: Persister cells were prepared in triplicate by ofloxacin treatment of stationary-phase cultures based on a previously described protocol (32). Overnight cultures of MG1655 cells grown in LB medium for 20 h were treated with ofloxacin for 3 h at 37° C., after which cells were pelleted, washed with fresh LB medium, pelleted again, and resuspended in antibiotic-free LB medium. After resuspension, chloramphenicol (30 μg/ml) and ampicillin (100 μg/ml) were added singly or in combination, and cells were incubated at 37° C. with shaking for 4 h. Samples were removed, pelleted once, washed with LB medium, resuspended, and serially diluted. A 10-μl volume of the serial dilutions was spot plated on an LB agar plate, which was incubated at 37° C. overnight. Colonies were counted the following day.

[3] = tested on: ppGpp concentration within HipA-arrested cells; assay: ppGpp measurements performed with HPLC in HipA-arrested cells; details: chloramphenicol treatment, within 15 min
Source text: ppGpp and nucleotides were extracted from cells grown on agar-supported nylon filters, following a protocol inspired by the rapid-quenching and metabolite extraction approach described in reference 25. We adopted this technique to avoid perturbing ppGpp levels with lengthy cell harvesting and extraction procedures, as the enzymes that generate and degrade ppGpp are known to respond rapidly to external conditions (26). Briefly, cells grown in liquid medium to an optical density at 600 nm (OD600) of ˜0.1 were transferred to nylon filters and adhered to solid agar plates containing our modified MOPS-M9 medium. […] Concentrations of ppGpp and GTP were measured using anion-exchange chromatography and a Partisil 5 Sax Rac II column (catalog no. 422-227; Hichrom Limited), with a silica Nova-Pak guard column (catalog no. WAT046845; Whatman) per a protocol described previously (26) and modified for brevity. […] The column temperature was maintained at 50° C., and absorbance was monitored at 254 nm. […]
Cultures of MG1655/pHipA cells were inoculated into 40 ml of MOPS-M9 medium in 250-ml unbaffled Erlenmeyer flasks and incubated with shaking at 37° C. […] Samples were processed per a previously published protocol (27) using Picogreen (Invitrogen) for DNA quantification. […] Fluorescence was measured using a Spectromax M2 reader.

MG1655/pHipA cells = assay: Measurement of DNA and RNA concentrations in HipA-arrested cells; details: 30 μg/ml chloramphenicol added 1 h after HipA induction
Description: Cultures of MG1655/pHipA cells were inoculated into 40 ml of MOPS-M9 medium in 250-ml unbaffled Erlenmeyer flasks and incubated with shaking at 37° C. When the OD600 reached ˜0.3, aTc was added to reach 50 ng/ml. After 1 h of HipA induction, a sample was removed for DNA or RNA extraction, the cultures were split into two 15-ml cultures, and 30 μg/ml chloramphenicol was added to one of the cultures. For comparison of DNA and RNA synthesis results in WT and ΔrelA strains expressing HipA, biological triplicates of the WT/pHipA and ΔrelA/pHipA strains were grown in MOPS-M9 medium at 37° C. to an OD600 of 0.2 to 0.4, at which point HipA expression was induced by addition of aTc to 50 ng/ml. Samples were processed per a previously published protocol (27) using Picogreen (Invitrogen) for DNA quantification. RNA was quantified by measurement of fluorescence using the Quant-It assay (catalog no. Q33140; Invitrogen) following the manufacturer's instructions. Fluorescence was measured using a Spectromax M2 reader.

CC1(C)S[C@@H]2[C@H](NC(=O)[C@H](N)c3ccccc3)C(=O)N2[C@H]1C(=O)O [ampicillin]
ampicillin resistance of ΔrelA strain expressing HipA ([1]; ampicillin 100 μg/ml, ΔrelA/pHipA strain, FIG. 9D): did not confer ampicillin resistance
reduction in CFU of isolated persisters [2]: 41%±13%

CC1(C)S[C@@H]2[C@H](NC(=O)C(C(=O)O)c3ccccc3)C(=O)N2[C@H]1C(=O)O (stereo partly drawn) [carbenicillin]
lysis of HipA-arrested WT cells ([1]; carbenicillin 100 μg/ml, HipA induced with 50 ng/ml aTc, FIG. 9C): did not induce lysis

O=C(N[C@H](CO)[C@H](O)c1ccc([N+](=O)[O-])cc1)C(Cl)Cl [chloramphenicol]
decrease of ppGpp concentration within HipA-arrested cells [3]: 60% (±20%)
inhibition of DNA synthesis in HipA-arrested cells (MG1655/pHipA cells; FIG. 9A): relieved inhibition
inhibition of RNA synthesis in HipA-arrested cells (MG1655/pHipA cells; FIG. 9B): relieved inhibition
